From patent EP2949653A1, “ISOXAZOLE DERIVATIVES AS LEUKOTRIENE BIOSYNTHESIS INHIBITORS” (Banoglu, Erden, priority 2014, dated 2015)

What was measured:
[1] = test system: 5-LO mediated product formation; test: 5-LO mediated product formation in intact neutrophils stimulated with A23187 (cell-based); design: species or system human; conditions: for IC50: Neutrophil, intact human neutrophils stimulated with 2.5 µM A23187, mean ± SE, n = 3-4, read-out: Inhibition of purified 5-LO activity IC50 (µM) cell based; for activity at 1 µM / activity at 10 µM: PMNL, human neutrophils, 2.5 µM A23187, means ± SE, n = 3-6; for activity at 1 µM: remaining activity at 1 µM inhibitor, read-out: 5-LO mediated product formation in intact neutrophils (PMNL) (% of control) at 1 µM; for activity at 10 µM: remaining activity at 10 µM inhibitor, read-out: 5-LO mediated product formation in intact neutrophils (PMNL) (% of control) at 10 µM
Description: (§1) Cell based and cell-free assays carried out in biological studies, immunofluorescence microscopy analysis and zymosan-induced peritonitis in mice are performed as described hereinabove (Pegola, C. and et al., British J. Pharmacology, 2014, D01:10.1111/bph.12625). In the cell based assays (intact neutrophils or monocytes), 5-LO mediated product formation is started, after pre-incubation with test compounds (or control DMSO) for 15 min. at 37 °C, with addition of Ca-ionophore A23187 (2.5 µM) to the fresh 5 x 10^6 neutrophils or monocytes suspended in 1 ml of PGC buffer (phosphate buffered saline (PBS) solution containing 1 mg ml^-1 glucose and 1mM CaCl2, pH 7.4). After the incubation for 10 min. at 37 °C, the reaction is ended with addition of 1 ml of methanol, and 30 µL 1 N HCl, 200 ng prostaglandin B1 and 500 µL PBS are added to the mixture. In cell-free assays (isolated 5-LO and cell homogenates), human recombinant 5-LO protein or 40,000g supernatant is added to 1 ml of 5-LO reaction mixture (PBS, pH 7.4, 1 mM EDTA, 1 mM ATP), and then incubated with test compounds (or control DMSO) for 10 min. at 4°C, heated to 37 °C and 2 mM CaCl2 as well as AA at certain concentrations are added. The reaction is ended as described for the cell-based assays. Resulting 5-LO mediated products are extracted and analysed by the known method of high pressure liquid chromatography (HPLC) (Pergola, C. Proc Natl. Acad. Sci. U.S.A. 2008, 105, 19881). 5-LO mediated product formation (LTB4 and all trans isomers, and 5 (S)-hydro(pero)xy-6-trans-8, 11, 14-cis-eicosatetraenoic acid, 5-H(p)ETE) is expressed as ng per 10^6 cell. Cysteinyl-LTs have not been analyzed because that the amount of C4, D4 and E4 and LTB4 oxidation products are below the detection limit.
(§2) Compounds were tested in intact human neutrophils stimulated with 2.5 µM A23187 under cell based conditions and on purified 5-LO under cell free conditions. ^aData are given as remaining activity as a percentage of control (100%) at 10 µM or 1 µM inhibitor concentrations (means ± SE, n = 3-6).
Compound 9hj inhibited 5-LO mediated product formation with IC50 of 60 nM in human neutrophils. Neutrophils are stimulated with Ca-ionophore A23187 (2.5 µM), without the addition of exogenous arachidonic acid (AA), after pre-incubation with 9hj or vehicle (0.1 % DMSO). 100% controls correspond to 275.7 ng mL^-1 of 5-LO mediated products (Figure 1).
100% controls correspond to 328.97 ng mL^-1 of 5-LO mediated products.

purified 5-LO [2] = molecular target: T1, purified 5-LO (Homo sapiens, UniProt P09917); test: Purified / human recombinant 5-LO activity (cell-free); assay type: biochemical; conditions: purified 5-LO under cell free conditions; mean ± SE, n = 3-4; read-out: Inhibition of purified 5-LO activity IC50 (µM) cell-free
T1 sequence (P09917 1-674): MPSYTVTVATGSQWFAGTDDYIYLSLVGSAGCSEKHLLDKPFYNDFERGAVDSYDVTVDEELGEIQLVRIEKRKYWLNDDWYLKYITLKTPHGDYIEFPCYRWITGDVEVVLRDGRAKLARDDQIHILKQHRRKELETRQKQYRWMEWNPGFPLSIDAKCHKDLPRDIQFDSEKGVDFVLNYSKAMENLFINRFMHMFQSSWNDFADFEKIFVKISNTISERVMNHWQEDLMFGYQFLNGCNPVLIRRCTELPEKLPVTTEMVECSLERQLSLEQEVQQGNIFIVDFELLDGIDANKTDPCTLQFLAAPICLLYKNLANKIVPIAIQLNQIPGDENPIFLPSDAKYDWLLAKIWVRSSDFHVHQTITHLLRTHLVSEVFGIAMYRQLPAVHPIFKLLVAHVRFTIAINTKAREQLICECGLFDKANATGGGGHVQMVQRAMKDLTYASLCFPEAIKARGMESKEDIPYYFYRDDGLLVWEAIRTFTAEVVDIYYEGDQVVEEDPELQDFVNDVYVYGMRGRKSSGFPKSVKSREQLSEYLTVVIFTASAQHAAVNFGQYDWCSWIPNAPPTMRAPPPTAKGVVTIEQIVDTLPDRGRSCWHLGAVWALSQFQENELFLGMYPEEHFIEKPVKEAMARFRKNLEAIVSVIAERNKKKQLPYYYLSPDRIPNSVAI
Description: as §1, §2
9hj was added 15 min before addition of 2 mM Ca^2+ plus 3 µM, 10 µM and 30 µM AA. 100% controls correspond to 200.35 ng mL^-1 for 3 µM AA, 514.36 ng mL^-1 for 10 µM AA and 537.73 ng mL^-1 for 30 µM AA.

purified 5-LO [3] = molecular target: T1, purified 5-LO; test: as above; assay type: biochemical; conditions: remaining 5-LO activity (percentage of uninhibited control) at 30 µM test compound

Row | SMILES | IC50 [1] | IC50 (purified 5-LO [2]) | remaining activity at 30 µM (purified 5-LO [3]) | activity at 1 µM [1] | activity at 10 µM [1]
1 | Cc1ccc(COc2ccc(-c3onc(C(=O)O)c3-c3ccc(Cl)cc3)c(C)c2)cc1 [Compound 9ck, 4-(4-Chlorophenyl)-5-(2-methyl-4-((4-methylbenzyl)oxy)phenyl)isoxazole-3-carboxylic acid] | 1.2 ± 0.11 µM | > 30 µM | 53% | 51 ± 6.68% | 2.26 ± 1.86%
2 | O=C(O)c1noc(-c2ccc(OCc3cccc(F)c3)cc2)c1-c1ccc(Cl)cc1 [Compound 9bj, 4-(4-Chlorophenyl)-5-(4-((3-fluorobenzyl)oxy)phenyl)isoxazole-3-carboxylic acid] | 1.29 ± 0.61 µM | 0.38 ± 0.04 µM |  | 52.3 ± 8.3% | 19.6 ± 9.5%
3 | N#Cc1cccc(COc2ccc(-c3onc(C(=O)O)c3-c3ccc(Cl)cc3)cc2)c1 [Compound 9dj, 4-(4-Chlorophenyl)-5-(4-((3-cyanobenzyl)oxy)phenyl)isoxazole-3-carboxylic acid] | 4.13 ± 0.33 µM | 16.3 ± 5.95 µM |  | 70 ± 9.14% | 6.91 ± 3.92%
4 | Cc1ccc(COc2ccc(-c3onc(C(=O)O)c3-c3ccc(Cl)cc3)cc2)cc1 [Compound 9cj, 4-(4-Chlorophenyl)-5-(4-((4-methylbenzyl)oxy)phenyl)isoxazole-3-carboxylic acid] | 1.4 ± 0.09 µM | 5.94 ± 0.36 µM |  | 55.8 ± 4.31% | 15.7 ± 4.53%
5 | CCOC(=O)c1noc(-c2ccc(OCc3cccc(F)c3)cc2)c1-c1ccc(Cl)cc1 [Compound 7bj, Ethyl 4-(4-chlorophenyl)-5-(4-((3-fluorobenzyl)oxy)phenyl)isoxazole-3-carboxylate] |  |  |  | 66.1 ± 14.3% | 55.3 ± 12.1%
6 | CCOC(=O)c1noc(-c2ccc(OCc3ccc(C)cc3)cc2)c1-c1ccc(Cl)cc1 [Compound 7cj, Ethyl 4-(4-chlorophenyl)-5-(4-((4-methylbenzyl)oxy)phenyl)isoxazole-3-carboxylate] |  |  |  | 78.3 ± 16.2% | 61.4 ± 12.4%
7 | CCOC(=O)c1noc(-c2ccc(OCc3ccccc3C)cc2)c1-c1cccc(Cl)c1 [Compound 8aj, Ethyl 4-(3-chlorophenyl)-5-(4-((2-methylbenzyl)oxy)phenyl)isoxazole-3-carboxylate] |  |  |  | 88 ± 10.2% | 83.4 ± 16.2%
8 | Cc1ccccc1COc1ccc(-c2onc(C(=O)O)c2-c2ccc(Cl)cc2)cc1 [Compound 9aj, 4-(4-Chlorophenyl)-5-(4-((2-methylbenzyl)oxy)phenyl)isoxazole-3-carboxylic acid] | 1.7 ± 0.47 µM | 0.48 ± 0.03 µM |  | 74.5 ± 8.6% | 13.1 ± 3.9%
9 | CCOC(=O)c1noc(-c2ccc(OCc3ccccc3C)cc2)c1-c1ccc(Cl)cc1 [Compound 7aj, Ethyl 4-(4-chlorophenyl)-5-(4-((2-methylbenzyl)oxy)phenyl)isoxazole-3-carboxylate] |  |  |  | 85.2 ± 0.7% | 71.9 ± 10.3%
10 | CCOC(=O)c1noc(-c2ccc(OCc3cccc(F)c3)cc2)c1-c1cccc(Cl)c1 [Compound 8bj, Ethyl 4-(3-chlorophenyl)-5-(4-((3-fluorobenzyl)oxy)phenyl)isoxazole-3-carboxylate] |  |  |  | 90.6 ± 11.5% | 80.8 ± 11.8%

Now from value to compound, other results behind:

Row | IC50 [1] | IC50 (purified 5-LO [2]) | remaining activity at 30 µM (purified 5-LO [3]) | SMILES | activity at 1 µM [1] | activity at 10 µM [1]
11 | 0.82 ± 0.17 µM | > 30 µM | 62% | Cc1cc(OCc2ccccc2C(F)(F)F)ccc1-c1onc(C(=O)O)c1-c1ccc(Cl)cc1 [Compound 9fk, 4-(4-Chlorophenyl)-5-(2-methyl-4-((2-(trifluoromethyl)benzyl)oxy)phenyl)isoxazole-3-carboxylic acid] | 44 ± 10.3% | 3.48 ± 3.05%
12 | 0.77 ± 0.19 µM | 6.04 ± 0.72 µM |  | O=C(O)c1noc(-c2ccc(OCc3ccccc3C(F)(F)F)cc2)c1-c1ccc(Cl)cc1 [Compound 9fj, 4-(4-Chlorophenyl)-5-(4-((2-(trifluoromethyl)benzyl)oxy)phenyl)isoxazole-3-carboxylic acid] | 52.8 ± 5.94% | 5.5 ± 2.21%
13 | 1.2 ± 0.23 µM | 6.11 ± 0.9 µM |  | O=C(O)c1noc(-c2ccc(OCc3ccccc3Cl)cc2)c1-c1ccc(Cl)cc1 [Compound 9ej, 5-(4-((2-chlorobenzyl)oxy)phenyl)-4-(4-chlorophenyl)isoxazole-3-carboxylic acid] | 65.7 ± 5.9% | 5.1 ± 1.46%
14 | 2.36 ± 0.32 µM | 5.01 ± 1.38 µM |  | Cc1cc(OCc2cccc(C#N)c2)ccc1-c1onc(C(=O)O)c1-c1ccc(Cl)cc1 [Compound 9dk, 4-(4-Chlorophenyl)-5-(4-((3-cyanobenzyl)oxy)-2-methylphenyl)isoxazole-3-carboxylic acid] | 77.4 ± 13.2% | 0.42 ± 0.21%
15 | 1.81 ± 0.11 µM | > 30 µM | 73% | Cc1cc(OCc2ccccn2)ccc1-c1onc(C(=O)O)c1-c1ccc(Cl)cc1 [Compound 9gk, 4-(4-Chlorophenyl)-5-(2-methyl-4-(pyridin-2-ylmethoxy)phenyl)isoxazole-3-carboxylic acid] | 73.2 ± 7.42% | 0.45 ± 0.45%
16 | 2.08 ± 0.33 µM | 0.5 ± 0.03 µM |  | Cc1ccccc1COc1ccc(-c2onc(C(=O)O)c2-c2cccc(Cl)c2)cc1 [Compound 10aj, 4-(3-Chlorophenyl)-5-(4-((2-methylbenzyl)oxy)phenyl)isoxazole-3-carboxylic acid] | 84.5 ± 9.1% | 0.7 ± 0.7%
17 | 4.09 ± 0.12 µM | 7.39 ± 2.45 µM |  | O=C(O)c1noc(-c2ccc(OCc3ccccn3)cc2)c1-c1ccc(Cl)cc1 [Compound 9gj, 4-(4-Chlorophenyl)-5-(4-(pyridin-2-ylmethoxy)phenyl)isoxazole-3-carboxylic acid] | 82.1 ± 15.2% | 21.3 ± 8.34%
18 | 0.82 ± 0.19 µM | 1.12 ± 0.14 µM |  | Cc1cc(OCc2cccc(F)c2)ccc1-c1onc(C(=O)O)c1-c1cccc(Cl)c1 [Compound 10bk, 4-(3-Chlorophenyl)-5-(4-((3-fluorobenzyl)oxy)-2-methylphenyl)isoxazole-3-carboxylic acid] | 48.6 ± 7.9% | 9.8 ± 3.6%
19 | 1.64 ± 0.11 µM | 0.38 ± 0.03 µM |  | O=C(O)c1noc(-c2ccc(OCc3cccc(F)c3)cc2)c1-c1cccc(Cl)c1 [Compound 10bj, 4-(3-Chlorophenyl)-5-(4-((3-fluorobenzyl)oxy)phenyl)isoxazole-3-carboxylic acid] | 66.7 ± 8.5% | 8.4 ± 5.1%
